# Results published in patent US20090036352A1, “DRUG DELIVERY SYSTEMS FOR THE PREVENTION AND TREATMENT OF VASCULAR DISEASES COMPRISING RAPAMYCIN AND DERIVATIVES THEREOF” (priority 2002, published 2009).
# Key:
# [1] = test system: ballooned carotid of Sprague Dawley rats; test: Inhibition of restenosis at 14 days in the rat carotid stent model, perivascular local delivery; format: in vivo; settings: local perivascular administration, 10 to 200 μg/day
# Protocol: A.3 Inhibition of Restenosis at 14 Days in the Rat Carotid Stent Model
# Male Sprague Dawley rats weighing […] are housed individually and allowed to acclimate prior to surgery. All animals receive standard rat chow and water ad libitum. Group size is 12 animals per group.
# The drug(s) administration is perivascular. A segment of ballooned carotid is encircled with a 1 cm length of silastic tubing (0.25 inch inside diameter, 0.47 inch outside diameter) to which is attached a catheter which feeds into an osmotic pump containing either compound or vehicle. This delivery system provides continuous, local delivery to the adventitia of the wrapped portion of vessel. Local drug(s) administration ranges between 5 μg and 10 mg, locally per day, depending on the solubility characteristics of the individual compounds. […]
# Animals are killed at 14 days post-balloon injury. […] Animals are killed by administration of an overdose of ketamine and rompun, the osmotic pumps are recovered and the volume of remaining content is recorded to ensure that pump failure has not occurred.
# Carotid, arteries are excised and immersion fixed, then transferred to Ringer's solution. […] The intimal lesion area and the medial area are determined by measurement of the internal elastic lamina, the external elastic lamina and the vessel/lumen interface.
# [2] = Release of drug from coated stents in PBS or PEG/water; format: physicochemical; settings: PBS pH 7.4 or PEG 400/water 40/60 v/v, 37° C., stable = less than 10% of variation of the drug release
# Protocol: Four 2 cm pieces of coated stents as described above are placed into 100 ml of phosphate buffer solution (PBS) having a pH of 7.4. Another 4 pieces from each series are placed into 100 ml polyethylene glycol (PEG)/water solution (40/60 v/v, MW of PEG=400). The stent pieces are incubated at 37° C. in a shaker. The buffer and PEG solutions are changed daily and different assays are performed on the solution to determine the released 40-O-(2-hydroxyethyl)-rapamycin concentrations. Such assays can show a stable release of 40-O-(2-hydroxyethyl)-rapamycin from coated stents for more than 45 days. By the term “stable release of 40-O-(2-hydroxyethyl)-rapamycin” is meant less than 10% of variation of the drug release. Controlled release techniques used by a person skilled in the art allow an unexpected easy adaptation of the required drug release rate. Thus, by selecting appropriate amounts of reactants in the coating mixture it is possible to easily control the bioeffectiveness of the rapamycin or rapamycin derivastive coated stents.
# [3] = test system: rat carotid artery balloon injury model; test: Inhibition of late neointimal lesion formation in the 28 day rat carotid artery balloon injury model; format: in vivo; settings: for percent inhibition of neointimal lesion formation: oral, 28 days post-balloon injury
# Protocol: A1. Inhibition of Late Neointimal Lesion Formation in the 28 Day Rat Carotid Artery Balloon Injury Model
# Compounds of formula I are tested in the following rat model.
# Rats are dosed orally with placebo or a compound of formula I. Daily dosing starts 3 days prior to surgery and continues for 31 days. Rat carotid arteries are balloon injured using a method described by Clowes et al. Lab. Invest. 1983; 49; 208-215. Following sacrifice at 28 days post-balloon injury, carotid arteries are removed and processed for histologic and morphometric evaluation. […] For example for 40-O-(2-hydroxyethyl)-rapamycin administered at 0.5, 1.0, and 2.0 mg/kg, the percent inhibition is similar at all three doses: inhibition is 31% at the lowest dose (0.5 mg/kg) and 39% at the highest dose (2.0 mg/kg). Compounds of formula I, e.g. 40-O-(2-hydroxyethyl)-rapamycin, have the beneficial effect to inhibit lesions at 4 weeks post-ballooning.
# dialysis patients = test: Prevention or reduction of vascular access dysfunction after insertion of an indwelling catheter in dialysis patients; format: in vivo, human; settings: daily dose 0.75 to 20 mg, 3 month treatment, observation period 6 months
# Protocol: A5. Prevention or Reduction of Vascular Access Dysfunction in Association with the Insertion of an Indwelling Catheter into the Vein of a Patient
# One hundred fifty prospective dialysis patients, who undergo successful insertion of an indwelling, large bore catheter, into a vein are selected for the study. […] In addition, patients may also be given a calcium antagonist, nitrates and/or anti-platelet agents. These drugs are administered for 3 consecutive months following catheter insertion.
# [4] = test system: New Zealand White rabbit iliac arteries; test: Inhibition of restenosis at 28 days in the rabbit iliac stent model; format: in vivo
# Protocol: A.2 Inhibition of Restenosis at 28 Days in the Rabbit Iliac Stent Model
# A combined angioplasty and stenting procedure is performed in New Zealand White rabbit iliac arteries. Iliac artery balloon injury is performed by inflating a 3.0×9.0 mm angioplasty balloon in the mid-portion of the artery followed by “pull-back” of the catheter for 1 balloon length. Balloon injury is repeated 2 times, and a 3.0×12 mm stent is deployed at 6 atm for 30 seconds in the iliac artery. Balloon injury and stent placement is then performed on the contralateral iliac artery in the same manner. A post-stent deployment angiogram is performed. All animals receive oral aspirin 40 mg/day daily as anti-platelet therapy and are fed standard low-cholesterol rabbit chow. Twenty-eight days after stenting, animals are anesthetized and euthanized and the arterial tree is perfused at 100 mmHg with lactated Ringer's for several minutes, then perfused with 10% formalin at 100 mmHg for 15 minutes. The vascular section between the distal aorta and the proximal femoral arteries is excised and cleaned of periadventitial tissue. The stented section of artery is embedded in plastic and sections are taken from the proximal, middle, and distal portions of each stent. All sections are stained with hematoxylin-eosin and Movat pentachrome stains. Computerized planimetry is performed to determine the area of the internal elastic lamina (IEL), external elastic lamina (EEL) and lumen. The neointima and neointimal thickness is measured both at and between the stent struts. The vessel area is measured as the area within the EEL. Data are expressed as mean ±SEM. Statistical analysis of the histologic data is accomplished using analysis of variance (ANOVA) due to the fact that two stented arteries are measured per animal with a mean generated per animal. A P<0.05 is considered statistically significant.
# A compound of formula I, e.g. 40-O-(2-hydroxyethyl)-rapamycin, is administered orally by gavage at a loading dose of 1.5 mg/kg one day prior to stenting, then dosed at 0.75 mg/kg/day from the day of stenting until day 27 post-stenting. In this model, the treatment with the compounds of formula I results in a marked reduction in the extent of restenotic lesion formation: for example, the treatment with 40-O-(2-hydroxyethyl)-rapamycin produces a significant (P<0.03) reduction in neointimal thickness (40% reduction), neointimal area (24% reduction), and percent arterial stenosis (26% reduction) with a significant 32% increase in lumen area. There is extensive neointimal formation in placebo-treated animals at 28 days, with the lesions consisting of abundant smooth muscle cells in proteoglycan/collagen matrix and apparent full endothelial healing.
# [5] = oral gavage, loading 1.5 mg/kg then 0.75 mg/kg/day to day 27, 28 days post-stenting, P<0.03
structure (smiles),measurement,setting,value
CO[C@H]1C[C@@H]2CC[C@@H](C)[C@@](O)(O2)C(=O)C(=O)N2CCCC[C@H]2C(=O)O[C@H]([C@H](C)C[C@@H]2CC[C@@H](OCCO)[C@H](OC)C2)CC(=O)[C@H](C)/C=C(\C)[C@@H](O)[C@@H](OC)C(=O)[C@H](C)C[C@H](C)/C=C/C=C/C=C/1C [40-O-(2-hydroxyethyl)-rapamycin],neointimal lesion formation at 14 days post ballooning,[1],reduces neointimal lesion formation
same,duration of stable release from coated stents,[2],more than 45 days
same,neointimal lesion formation at 28 days following balloon injury,"[3]; oral daily dosing from 3 days prior to surgery for 31 days, 0.5 to 2.0 mg/kg",significantly reduce neointimal lesion formation
same,percent inhibition of neointimal lesion formation,[3]; 0.5 mg/kg,31%
same,percent inhibition of neointimal lesion formation,[3]; 2.0 mg/kg,39%
same,prevention or reduction of vascular access dysfunction,dialysis patients,demonstrate the efficacy
same,histology of the intima of stented arterial segments,"[4]; majority of arterial segments, 28 days post-stenting",the intima is well healed
same,endothelialization of stented arteries (scanning electron microscopic analysis),"[4]; n=4 arteries, 28 days post-stenting",84%
same,increase in lumen area,"[4]; oral gavage, loading 1.5 mg/kg then 0.75 mg/kg/day to day 27, 28 days post-stenting",32%
same,reduction in neointimal area,[4]; [5],24%
same,reduction in neointimal thickness,[4]; [5],40%
same,reduction in percent arterial stenosis,[4]; [5],26%
